According to patent publication US20060257481A1, “Sustained release formulation and dosing schedule of leukotriene synthesis inhibitor for human therapy” (deCODE Genetics ehf., priority 2005, published 2006):
Read-outs that look alike come from different tables or passages of the source.

Experiments:
CRP = assay: Study DG-031-201 cross-over trial: Hs-CRP in serum; type: in vivo, human; conditions: for CRP: Study 201, 2-6 wks
Description: (§1) Patients who met the study eligebility criteria were enrolled and randomized into 3 different dose-level groups: (1) 64 patients on 250 mg/day therapy with DG-031 (250 mg q.d.), vs placebo; (2) 64 patients on 500 mg/day therapy with DG-031 (250 mg b.i.d.) vs placebo; and (3) 63 patients on 750 mg/day therapy with DG-031 (250 mg t.i.d.) vs placebo. […] All patients received 3 tablets per day. Treatment periods, 4 weeks in duration each, were separated by a 2-week washout period. The placebo tablets were identical in shape, color, form and taste to the active tablets except that they contained no active drug ingredients. Treatment with DG-031 or placebo was in addition to the subject's standard care, including all medications and treatment plan as prescribed by the subject's cardiologist prior to enrolment. A total of 191 subjects were enrolled, with 172 completing all 8 visits or 8 patients short of the target of 180 patients.
(§2) The primary objective was to determine whether the FLAP inhibitor has a statistically significant effect, compared to placebo, on one or more biomarkers of MI risk, including: (1) ionomycin-induced LTB4 and MPO release by neutrophils ex vivo; (2) MPO, CRP, N-tyrosine, Lp-PLA2 or amyloid A in serum, or (3) LTE4 in urine. The secondary objective was to determine whether the effect of DG-031 was dose-dependent. The tertiary objective was to assess other biomarkers (See Results). Evaluation of safety and tolerability of the drug was also a primary endpoint.
(§3) All data were analyzed according to a pre-established statistical analysis plan (SAP) and by intention-to-treat (ITT). Each arm of the study, as well as pooled sets (combining dose levels), was considered for the primary analysis. Each such set is an AB/BA cross-over design and in the primary analysis of efficacy, the levels of biomarkers of MI risk at the end of the treatment periods (visits 4 and 7) were used as primary response variables. The difference between DG-031 and placebo treatment was the primary outcome, assessed separately for each of the biomarkers. Treatment effect was tested using a two-sample t-test on the period differences for suitably transformed response variables, under an assumption of normality of the transformed data. We report treatment effect as one half of the observed mean differences in the two-sample t-test, with a 95% CI. No pre-tests for carry-over effect were performed as a part of the primary analysis. Tests for carry-over were done and are reported separately from results of primary analysis. All hypotheses were tested at a two-sided nominal significance level of 0.05 and p-values based on t-tests are reported. In addition, for the primary efficacy endpoints where the effects of the two highest doses on 10 primary variables were studied, a randomization test was performed which corrects for multiple testing and ensures that the key results are not affected by distributional concerns. In particular, 1 million permutations of the patients into the different study tracks were performed, generating a reference distribution for the maximum of the 10 t-statistics of the biomarkers under the null hypothesis of no drug effect. By comparing the observed t-statistic of each of the 10 biomarkers to this reference distribution, empirical p-values were computed. […]

[1] = test system: LTB4 produced by ionomycin-activated neutrophils ex vivo; assay: Study DG-031-201: LTB4 in whole blood ex vivo after ionomycin activation, mass spectrometry; parameters: species or system human
Description: as §1, §2
as §3, with “reported.” for “reported. In addition, for the primary efficacy endpoints where the effects of the two highest doses on 10 primary variables were studied, a randomization test was performed which corrects for multiple testing and ensures that the key results are not affected by distributional concerns. In particular, 1 million permutations of the patients into the different study tracks were performed, generating a reference distribution for the maximum of the 10 t-statistics of the biomarkers under the null hypothesis of no drug effect. By comparing the observed t-statistic of each of the 10 biomarkers to this reference distribution, empirical p-values were computed.”

LTE4 in urine = assay: Study DG-031-201: LTE4 in urine; type: in vivo, human
Description: as §1, §2
All data were analyzed according to a pre-established statistical analysis plan (SAP) and by intention-to-treat (ITT). Each arm of the study, as well as pooled sets (combining dose levels), was considered for the primary analysis. Each such set is an AB/BA cross-over design and in the primary analysis of efficacy, the levels of biomarkers of MI risk at the end of the treatment periods (visits 4 and 7) were used as primary response variables. The difference between DG-031 and placebo treatment was the primary outcome, assessed separately for each of the biomarkers. […]

[2] = healthy volunteers, cited from earlier work
clinical = conditions: human, in vivo
Description: Measurements of plasma DG-031 can be carried out by methods that are standard in the art. […] The DG-031 is then measured by liquid chromatography and/or mass spectrometry and the measured concentration is compared to a standard curve.
After completion of the double-blind study reported herein an open-label randomized study was conducted in an independent cohort but with same eligibility criteria and measuring several of the same biomarkers. […] Each patient was on drug for 8 days; there was no placebo group. The primary objective of this study was to determine pharmacokinetic parameters of DG-031 in three different doses, as well as to assess the pharmacokinetic/pharmacodynamic relationship between DG-031, LTB4 and MPO.
The additional phase II study was conducted to compare a 750 mg total daily dose administered in a BID or TID dosing regimen.

[3] = difference visit 2 to visit 5, 500 and 750 mg/day vs placebo cohort

Structure (SMILES): O=C(O)[C@@H](c1ccc(OCc2ccc3ccccc3n2)cc1)C1CCCC1 [DG-031, (R)-(+)-alpha-cyclopentyl-4-(2-quinolinylmethoxy)-Benzeneacetic acid]
- Reduction in CRP (CRP; 250 mg BID and TID, end of wash-out period (week 6), p=0.02): 25%
- CRP (CRP; 250 mg BID, p = 0.016): −24%
- CRP (CRP; 250 mg QD, NS): −6%
- Persistence of CRP reduction after week 6 (CRP; after end of wash-out period): 4 weeks
- Reduction of CRP (CRP; higher two dose groups (250 mg BID and 250 mg TID), at 2 weeks, p=0.07, not significant): 16%
- Maximum reduction in LTB4 production ([1]; 750 mg/day, [10%,39%], p=0.003): 26%
- Carry-over effect, LTB4 in whole blood, corr. for wbc, m.s. [1, 3]: 0.12
- Carry-over effect, LTB4 in whole blood, mass spec. [1, 3]: 0.19
- Reduction of LTB4 produced by ionomycin-activated neutrophils ex vivo ([1]; pooled set of 500 mg and 750 mg arms, [6%,27%], nominal p=0.004): 17%
- Carry-over effect, LTE4 in urine (LTE4 in urine; [3]): −0.06
- Increase of urine levels of LTE4 (LTE4 in urine; highest dose, [15%,40%], p<0.001): 27%
- Increase of urine levels of LTE4 (LTE4 in urine; pooled dose set 500 mg and 750 mg, [13%,30%]): 21%
- Safety and tolerability ([2]; total daily dose 100, 200, 250, 300, 500, 750 and 1000 mg, less than 14 days): safe and well tolerated
- Safety and tolerability ([2]; total daily doses 500 mg and 1000 mg, 14-42 days): safe and well tolerated
- half-life (clinical; Dominant half-life, humans): 2.5 to 3 h
- half-life (clinical; Slower half-life, fraction of the dose with slower elimination): 10 to 15 h
